This is an account of results in patent US4225607A, “Pharmaceutical composition containing a xanthine derivative” (Wulfing; Johann A., priority 1979, dated 1980).

The structures appear in SMILES notation. Values joined by “and” are separate entries in the source; they are usually repeats but may differ in a detail not shown here. Equal entries are not always repeated.

For data set [1], the system named is ischaemic skeletal muscle. The experiment in a line: Contractility of ischaemic skeletal (calf) muscle, direct stimulation, femoral artery graded occlusion. In kind it is in vivo. The following applies: cat; for dose range of activity: contractility and pO2 of ischaemic skeletal muscle; for changes in contractility and pO2 in comparison with Compound A (in words): 5-32 mg/kg vs Compound A at 125 μg/kg.
Description: Cats of either sex were anaesthetized with urethane/chloralose (120/60 mg/kg i.p.). […] The intraduodenal (i.d.) application of compound was conducted by means of a plastic catheter, which was inserted into the duodenum.
Cats of either sex were anaesthetized as for pO2 measurement. After dissection of the skin of the calf muscles, the sciatic nerve was cut about 3 cm proximal to the knee. The tendon of the calf muscles was cut and connected with an isometric force transducer (SWEMA, SG 3). In order to maintain constant differences and a resting tension of 100 p, the hind limb was fixed at the tibia by means of a clamp. Direct stimulation of the muscles consisted of square wave pulses of 4 msec duration at a frequency of 2 Hz and at a voltage of 50 V. In order to keep the muscles wet and at a normal temperature, the muscles were continuously superfused by means of a NaCl-solution (0.9%, 38° C.). Femoral blood flow was restricted by a graded occlusion of the artery leading to a reduction of contractility by ca. 30%. After having reached a constant level of the contraction force, the vehicle (NaCl and Methocel, respectively) was injected, followed by the test substance.

The test system of another data set is skeletal muscle. In words: Oxygen tension (pO2) in skeletal muscle (m. gastrocnemius), femoral artery ligation, Pt-needle electrodes. Format: in vivo, cat. The following applies: for effect of Compound A, Δ pO2: 125 μg/kg i.v.
Data set [2] in a line: Blood pressure (BP), initial decrease phase and second increase phase. Format: in vivo, cat. Particulars: Table 3, 125 μg/kg i.v.
A short description of a further data set: LD50 in mice per oral. The following applies: mouse, in vivo.
A short description of data set [3]: Solubility in water / aqueous media. In kind it is physicochemical.
For data set [4] the following is noted: in vivo; cited from earlier work.

Consider `CCCCn1c(=O)c2c(ncn2CC(C)=O)n(CCCC)c1=O` [Compound A, 1,3-di-n-butyl-7-(2-oxopropyl)xanthine], for which, in data set [1], the “contractility of ischaemic skeletal muscle (in words)” value was “distinct increase” and the “dose range of activity” value lay in the range of 0.05 to 0.125 mg/kg. Also, the “effect of Compound A, Δ pO2” value with skeletal muscle (Table 2, control hind limb, individual cats) was 3.8 Torr and 3.5 Torr and 3.4 Torr. The “effect of Compound A, Δ pO2” value in the data set on skeletal muscle (Table 2, hind limb with art. ligation, individual cats) was 6.2 Torr and 7.3 Torr and 5.2 Torr and 5.6 Torr. Further, the “pO2 of ischaemic skeletal muscle (in words)” value in the data set with skeletal muscle (cat) is reported as “distinct increase”. The “t, time interval to reach initial values, second phase BP increase” value in data set [2] was 32 min. The same molecule gave an LD50 in the data set “LD50 in mice per oral” above 1000 mg/kg. For the same molecule, in data set [3] (aqueous media), the “solubility in aqueous media (in words)” value is given as “only sparingly soluble in aqueous media”.

On to `CCCCn1c(=O)c2c(ncn2CC(=O)CC)n(CCCC)c1=O` [Compound C, 1,3-di-n-butyl-7-(2-oxobutyl)xanthine], for which, in data set [1], the “changes in contractility and pO2 in comparison with Compound A (in words)” value is on record as “less pronounced in comparison with Compound A”; the “dose range of activity” value was 5 to 32 mg/kg. The “contractility (% initial value)” value in data set [1] (Table 1, ischaemic muscle, i.d., 12.5 mg/kg) turned out to be 22 % initial value. Also, the “pO2 (increase)” value in the data set with skeletal muscle (Table 1, ischaemic muscle, cat, i.d., 32 mg/kg) is given as 6 mmHg. In addition, the “water solubility (in words)” value in data set [3] (water, reason for NT i.v.) is “low water solubility”.

With `CC(=O)CCCCn1c(=O)c2c(ncn2C)n(C)c1=O` [Compound B, pentoxyphylline], in data set [1], the “changes in contractility and pO2 in comparison with Compound A (in words)” value is reported as “less pronounced in comparison with Compound A”; the “dose range of activity” value lay within 5 to 32 mg/kg. Besides, in the data set on skeletal muscle (Table 2, B at 5 mg/kg vs A at 125 μg/kg, mean), the “Mean effect of Compound B compared to Compound A” value stood at 21.3%. Moreover, the “effect of Compound B, Δ pO2” value with skeletal muscle (Table 2, control hind limb, 5 mg/kg i.v., individual cats, 5 mg/kg) was 0.3 Torr. Also, the “oral toxicity (in words)” value in data set [4] is recorded as “low oral toxicity”.

By LD50 is commonly meant the dose expected to kill half of the subjects tested.
